Laboratory results from patent US20190224147A1, “CETP MODULATOR FOR USE IN THE TREATEMENT OF EYE DISEASE” (Hoffmann-La Roche Inc., priority 2013, published 2019).
Marks after values point to notes of the source that are not given here.

Experiments:
[1] = Golden Syrian hamsters study b: lutein and zeaxanthin levels in plasma and liver; assay type: in vivo; details: hamsters fed 0.1% FLORAGLO, 14 days, dalcetrapib 0.320% (~300 mg/kg) or anacetrapib 0.024% (~25 mg/kg) in diet
Procedure: (§1) Hamsters (7 weeks-old) were fed a standard rodent chow diet containing 4.5% fat and 0.05% cholesterol and coconut oil (70 g/kg dry food) for 14 days. After 2 weeks of high-fat diet feeding, hamsters were allocated to 3 experimental treatment groups of 10 animals each based on plasma lipid levels, and provided the same diet as before supplemented with 0.1% (w/w) FLORAGLO (same composition as for Study 2) and either no treatment (group 1), dalcetrapib at 0.320% (w:w, ˜300 mg/kg, group 2), or anacetrapib at 0.024% (w:w, ˜25 mg/kg, group 3). After 14 days of treatment, plasma and livers were collected for lutein and zeaxanthin analysis as described in study a.

[2] = Golden Syrian hamsters study b: additional variables measured (cholesterol fractions, triglycerides); assay type: in vivo; details: 14 days, dalcetrapib ~300 mg/kg or anacetrapib ~25 mg/kg in diet
Procedure: as §1, with “3).” for “3). After 14 days of treatment, plasma and livers were collected for lutein and zeaxanthin analysis as described in study a.”

[3] = system: VCAM-1 expression; details: pre-incubation of human aortic endothelial cells; Martin K R et al, Atherosclerosis 2000; cited from earlier work
[4] = system: E-selectin expression; details: pre-incubation of human aortic endothelial cells; Martin K R et al, Atherosclerosis 2000; cited from earlier work
[5] = system: ICAM-1; details: pre-treatment of human aortic endothelial cells; Martin K R et al, Atherosclerosis 2000; cited from earlier work
[6] = Golden Syrian hamsters study a: lutein and zeaxanthin levels in plasma, liver and eyecups (HPLC-MS); assay type: in vivo; details: hamsters fed 0.1% FLORAGLO, dalcetrapib 0.375% food admixture (~400 mg/kg), 14 days
Procedure: Hamsters (7 weeks-old) were fed a standard rodent chow diet containing 4.5% fat and 0.05% cholesterol and coconut oil (70 g/kg dry food) for 14 days. After two weeks of feeding, hamsters were allocated to 2 experimental groups of 10 animals and given the same diet as before supplemented with 0.1% (w:w) FLORAGLO (lutein 5.2%, zeaxanthin 0.5%, DSM Nutritional Products): group 1 received no treatment, group 2 was given dalcetrapib as a 0.375% food admixture (˜400 mg/kg).
After 14 days of treatment and 4 hours of fasting, plasma, liver and eyes were collected and kept frozen until analysis. Lutein and zeaxanthin levels in plasma, liver and the pooled eyecups from 2 hamsters were determined by HPLC-MS using cryptoxanthin as internal standard. Plasma samples were directly extracted with hexane/ethyl acetate in dark environment in the presence of BHT. Liver samples and pooled eye cups (n=4) were first homogenized in the presence of BHT using an appropriate solvent in a Precellys tissue homogenizer followed by saponification prior extraction with hexane/ethyl acetate. The organic phase was washed with water. All organic phases were dried and reconstituted in methanol containing 0.1%. HPLC-MS was accomplished on a Waters TQ-S in APCI mode coupled to an Acquity I-class UPLC (Waters AG, Baden-Dättwil) on an ACCLAIM C30 RP column (Thermo Fisher Scientific, Reinach).

| Compound | Change in liver lutein, in % vs control [1] | Change in liver zeaxanthin, in % vs control [1] | Change in plasma lutein, in % vs control [1] | Change in plasma zeaxanthin, in % vs control [1] | Triglycerides, in % vs control [2] | VLDL-C, in % vs control [2] | reduced VCAM-1 expression [3] [%] | reduced E-selectin expression [4] [%] | reduced the expression of ICAM-1 [5] [%] | also measured |
| --- | --- | --- | --- | --- | --- | --- | --- | --- | --- | --- |
| COc1cc(F)c(C(C)C)cc1-c1ccc(C(F)(F)F)cc1CN1C(=O)O[C@H](c2cc(C(F)(F)F)cc(C(F)(F)F)c2)[C@@H]1C [anacetrapib] | −32% | −31% | ns | ns | ns | ns | – | – | – | HDL-C, in % vs control [2]: +54*** %; LDL-C, in % vs control [2]: −99*** %; Total cholesterol, in % vs control [2]: +28** % |
| CC1=C(/C=C/C(C)=C/C=C/C(C)=C/C=C/C=C(C)/C=C/C=C(C)/C=C/C2=C(C)CCCC2(C)C)C(C)(C)CCC1 [beta-carotene] | – | – | – | – | – | – | 29 | 38 | 11 | – |
| CCC(CC)CC1(C(=O)Nc2ccccc2SC(=O)C(C)C)CCCCC1 [dalcetrapib, S-[2-([[1-(2-ethylbutyl)-cyclohexyl]-carbonyl]amino)phenyl]2-methylpropanethioate] | +90% | +109% | +95% | +101% | −37** % | −27* % | – | – | – | Change in liver lutein, in % vs control ([6]; liver): +107%; Change in liver zeaxanthin, in % vs control ([6]; liver): +222.9%; Change in plasma lutein, in % vs control ([6]; plasma): +55.7%; Change in plasma zeaxanthin, in % vs control ([6]; plasma): +164%; Change in eyecups lutein, in % vs control ([6]; pooled eyecups): +164.6%; Change in eyecups zeaxanthin, in % vs control ([6]; pooled eyecups): +114% |
| CC1=C[C@H](O)CC(C)(C)[C@H]1/C=C/C(C)=C/C=C/C(C)=C/C=C/C=C(C)/C=C/C=C(C)/C=C/C1=C(C)C[C@@H](O)CC1(C)C [lutein, (3R,3′R,6′R)-β,ε-Carotene-3,3′-diol] | – | – | – | – | – | – | 28 | 34 | 14 | – |
| CC(C)=CCC/C(C)=C/C=C/C(C)=C/C=C/C(C)=C/C=C/C=C(C)/C=C/C=C(C)/C=C/C=C(\C)CCC=C(C)C [lycopene] | – | – | – | – | – | – | 13 | – | 18 | – |
